How the values were obtained:
hRXRα = biological target: T1, hRXRα (Homo sapiens, UniProt P19793); experiment: Scintillation Proximity Assay (SPA) binding assay, 9-cis[3H]-retinoic acid radioligand; conditions: RXRα ligand binding domain on SPA beads; radioligand 9-cis[3H]-retinoic acid; read-out: Apparent pKi (converted)
T1 construct: polyhistidine (N); made in house; host or cells: E. coli
T1 sequence (P19793 227-458 limits assumed): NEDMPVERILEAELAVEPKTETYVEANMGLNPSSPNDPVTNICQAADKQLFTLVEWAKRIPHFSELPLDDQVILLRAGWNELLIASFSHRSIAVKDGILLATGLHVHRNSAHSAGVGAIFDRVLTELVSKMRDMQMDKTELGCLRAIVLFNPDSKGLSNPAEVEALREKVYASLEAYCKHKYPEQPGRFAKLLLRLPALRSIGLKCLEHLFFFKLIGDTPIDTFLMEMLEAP
Protocol: The compounds were tested for their ability to bind to hRXRα using a Scintillation Proximity Assay (SPA) as is known in the art. The RXRα ligand binding domain (LBD) was expressed in E. coli as an amino-terminal polyhistidine tagged fusion protein. The LBD was then labeled with biotin and immobilized on streptavidin-modified scintillation proximity beads.
9-cis[3H]-Retinoic acid (9-cis) was the radioligand used for the assay. To each well to be assayed was added the desired concentration of the previously prepared solution of 9-cis previously incubated with receptor-coated SPA bead slurry. The plates were incubated for at least 1 hour at room temperature and bound radioactivity for each well was determined in a Wallac 1450 Microbeta counter.
In this specification, pKi=−log of the concentration of the test compound required to achieve an apparent Ki value according to the equation Ki=IC50/1+[L]/Kd, where IC50=the concentration of test compound required to inhibit 50% of the specific binding of the radioligand, [L] is the concentration of the radioligand used, and Kd is the dissociation constant for the radioligand at the receptor.

full length human RXRα = biological target: T2, full length human RXRα (Homo sapiens, UniProt P19793); experiment: Transient transfection assay in CV-1 cells (CRBP II-tk-SPAP reporter); assay type: cell-based; conditions: CV-1 cells transfected with human RXRα and CRBP II-tk-SPAP reporter; 24 h incubation; SPAP activity
T2 construct: These cells were transfected with full length human RXRα; expressed in transfected cells; host or cells: CV-1 (monkey kidney cell line)
T2 sequence (P19793 1-462): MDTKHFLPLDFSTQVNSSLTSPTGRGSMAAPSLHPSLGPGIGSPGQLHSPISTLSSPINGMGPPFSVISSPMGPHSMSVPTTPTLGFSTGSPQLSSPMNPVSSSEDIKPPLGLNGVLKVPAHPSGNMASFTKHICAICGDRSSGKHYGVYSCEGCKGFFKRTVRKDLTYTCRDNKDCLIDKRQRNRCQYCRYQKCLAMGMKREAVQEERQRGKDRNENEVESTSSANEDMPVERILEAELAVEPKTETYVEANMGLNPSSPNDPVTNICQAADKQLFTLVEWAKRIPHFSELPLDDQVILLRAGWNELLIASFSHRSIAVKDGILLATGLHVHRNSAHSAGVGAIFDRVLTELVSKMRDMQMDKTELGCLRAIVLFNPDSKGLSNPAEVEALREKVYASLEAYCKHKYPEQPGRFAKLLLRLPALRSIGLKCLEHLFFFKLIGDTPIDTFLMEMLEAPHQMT
Protocol: Transcriptional activity of the compounds was measured in a monkey kidney cell line (CV-1). These cells were transfected with full length human RXRα and the natural response element, cellular retinol binding protein type II in a reporter gene construct, (CRBP II-tk-SPAP), consisting of HSV tk promoter, and the secreted placental alkaline phosphatase reporter gene. CV-1 cells were plated at a density of 24,000 cells per well in high glucose DMEM supplemented with 10% charcoal/dextran-treated FBS. Transfection mixes contained 4 ng of receptor expression vector, 8 ng of reporter plasmid, 25 ng of β-galactosidase expression vector (used as an internal control), and 43 ng of carrier plasmid. Transfections were performed with Lipofectamine according to the manufacturer's instructions. Drug dilutions were prepared in phenol red-free DMEM/F-12 with 15 mM HEPES supplemented with 10% charcoal-stripped, delipidated calf serum. Cells were incubated for 24 h in the presence of drugs, after which the medium was sampled and assayed for SPAP activity.
B-galactosidase, which measures transfection efficiency activity, was determined by using 3.6 mM o-nitrophenyl-D-galactopyranoside in 0.1 M sodium phosphate pH 7.2 buffer containing 0.13% Triton X-100 as substrate. These plates were read on a Molecular Devices Vmax spectrophotometer, at a 405 nm endpoint reading. Data were reduced using RoboFit.
The results were expressed as percent of maximum or fold activation calculated by the following formulas: fold activation=(((SPAP−SPAPsubstrate blank avg.)/(β-gal−β-gal substrate blank avg.))−DMSO vehicle avg.)/DMSO vehicle avg, and % max.=(fold activation of unknown/positive control fold activation avg.)×100.

Row | Ki (hRXRα) | EC50 (full length human RXRα) | Structure (SMILES)
1 | > 1 µM | > 1 µM | CC1(C)CCC(C)(C)c2cc(C3CCCc4oc(C(=O)O)cc43)ccc21 (stereo not drawn) [Example 13, 4-(5,5,8,8-Tetramethyl-5,6,7,8-tetrahydro-2-naphthalenyl)-4,5,6,7-tetrahydro-1-benzofuran-2-carboxylic acid]
2 | > 1 µM | > 1 µM | CC1(C)CCC(C)(C)c2cc(Cc3csc(/C=C/C(=O)O)c3)ccc21 [Example 18, (2E)-3-{4-[(5,5,8,8-Tetramethyl-5,6,7,8-tetrahydro-2-naphthalenyl)methyl]-2-thienyl}-2-propenoic acid]
3 | > 1 µM | > 1 µM | COc1cc2c(cc1Cc1coc(/C=C/C(=O)O)c1)C(C)(C)CCC2(C)C [Example 19, (2E)-3-{4-[(3-Methoxy-5,5,8,8-tetramethyl-5,6,7,8-tetrahydro-2-naphthalenyl)methyl]-2-furyl}-2-propenoic acid]

Source: patent US7173134B2, “Selective RXR ligands” (SmithKline Beecham Corporation, priority 2001, dated 2007)
